Measured values taken from PMC10531168, “Development of Stable Amino-Pyrimidine–Curcumin Analogs: Synthesis, Equilibria in Solution, and Potential Anti-Proliferative Activity” (International Journal of Molecular Sciences, 2023).
Like-named read-outs stand apart in the source and are kept apart here.

Tests used:
PC3 cells [1] = assay: Cell viability assay (Presto Blue), 48 h; type: cell-based, human; conditions: PC3, 48 h treatment, mean of three independent experiments, n.a. = not active at tested concentrations (≤100 µM)
Experimental: (§1) To determine the anti-proliferative activity of the compounds on cancer cells, we performed dose–response treatments for 48 h on androgen-sensitive and androgen-insensitive PCa cells (LNCaP and PC3, respectively), as well as CRC cell lines (HCT116 and HT29).
(§2) The human colon cell lines, HT29 (ATCC Cat# HTB-38) and HCT116 (ATCC Cat# CCL-247), were grown in DMEM High-Glucose Medium (Biowest, Nuaillé, France), while the human prostate cell lines, PC3 (ATCC Cat# CRL-1435) and LNCaP (ATCC Cat# CRL-1740), were grown in Ham’s F12 (Biowest, Nuaillé, France) and RPMI 1640 (Biowest, Nuaillé, France), respectively. All media were supplemented with 2 mM glutamine, 100 IU/mL penicillin, 100 μg/mL streptomycin, and 10% fetal bovine serum (FBS, Gibco, Fisher Scientific Italia, Segrate (MI), Italia)). The cells were grown at 37 °C in a humified 5% CO2 atmosphere.
(§3) HCT116, HT29, PC3, or LNCaP cells were seeded into a 96-well plate at a density of 5000 cells/well. Cells were treated with eight different concentrations of pyrimidine derivates and curcumin for 48 h, at concentrations starting at 30 μM with 2-fold serial dilutions for curcumin and starting at 100 μM with 3-fold serial dilutions for pyrimidine derivates. Cell viability was measured using Presto Blue cell viability reagent (#A13261, Thermo Fisher Scientific, Waltham, MA, USA), according to the manufacturer’s protocol. The concentration at which cellular growth is inhibited by 50% (GI50) was determined.

[2] = design: method as in doi:10.1016/S0020-1693(01)00687-9; conditions: cited from earlier work
LNCaP cells [3] = assay: Cell cycle analysis (propidium iodide cytofluorimetry); type: cell-based, human; conditions: 48 h at GI50 dose; for % cells SubG1 (apoptotic cells): DMSO control 0.9; for % cells S: DMSO control 12.5; for % cells G2/M: DMSO control 18.4; for % cells G0/G1: DMSO control 65.1
Experimental: (§4) To further investigate the effects of PY1 and PY3 on cell growth, we analyzed the cell cycle progression of LNCaP cells treated at GI50 doses for 48 h (Figure 6 and Figure S4). […] Compared to curcumin, PY1 induced a similar but enhanced effect on the cell cycle, with apoptosis and S-phase being 9.6% and 6.4%, respectively. […] This effect was similarly observed in PC3 and HCT116 cells, with G2/M cells increasing from 14.6% to 62% in PC3 and from 17% to 33% in HCT116 cells (Figure S4).
(§5) Cells were seeded into a 24-well plate at a density of 35,000 cells/well and harvested after 48 h of treatment at GI50 concentrations. Cell cycle analysis of cells stained with propidium iodide solution (propidium iodide 25 µg/mL, Na-Citrate 3.4 mM, NaCl 9.65 mM, NP-40 0.03%) was performed using an Attune Next cytofluorimeter (Thermo Fisher Scientific, Waltham, MA, USA). DMSO was used as the control. Statistical analysis was performed with GraphPad PRISM 6 software (GraphPad Prism), using two-way ANOVA as specified in the figure legends. Graph represents means ± standard errors of the mean (SEM), n = 3. Data were considered to be statistically significant if p < 0.05 (*), p < 0.01 (**), p < 0.001(***), and p < 0.0001 (****).

LNCaP cells [4] = assay: Cell viability assay (Presto Blue), 48 h; type: cell-based, human; conditions: 48 h treatment, mean of three independent experiments, n.a. = not active at tested concentrations (≤100 µM)
Experimental: as §1, §2, §3

HT29 cells [5] = assay: Cell viability assay (Presto Blue), 48 h; type: cell-based; conditions: Homo sapiens, HT-29; HT29, 48 h treatment, mean of three independent experiments; n.a. = not active at tested concentrations (≤100 µM)
Experimental: as §1, §2, §3

HCT116 cells [6] = assay: Cell viability assay (Presto Blue), 48 h; type: cell-based; conditions: Homo sapiens, HCT-116; HCT116, 48 h treatment, mean of three independent experiments; n.a. = not active at tested concentrations (≤100 µM)
Experimental: as §1, §2, §3

HT29 cells [7] = system: HT29 cells; design: method as in PMID 27614381; conditions: read-out: GI50 (printed IG50), HT29 cell proliferation; cited from earlier work
[8] = UV-Vis pH-metric spectrophotometric titration, protonation constants (HypSpec); type: physicochemical; conditions: 298 K; for pKa: aqueous solution with <2% v/v methanol
Source text: Pyrimidine derivatives can be considered weak bases, and the pyrimidine nitrogens are protonated in extremely acid conditions (pH < 1), while the NH2 group has a pKa around 5 depending on the electronic effects of the substituents on the aromatic rings. As a consequence, the amino-pyrimidine moiety is in the neutral form at physiological pH (7.4). Among the synthesized compounds, MPY1, MPY3, and PY1 are characterized by additional acid/base moieties, particularly a phenolic group in the meta position for MPY1 and PY1 and an additional primary aliphatic amine for MPY3. To estimate the protonation constants, UV-visible spectroscopy was preferred over potentiometry since the lower concentration range that is required allows it to work in an aqueous medium with a negligible percentage of methanol (<2% v/v). Figure 3 reports the UV-Vis pH-metric titration of MPY1 in the pH range of 2–11. In extremely acid conditions (pH 2, red spectrum), the amine group on the pyrimidine ring is fully protonated, and the molecule is positively charged (H2L^+). The maximum absorbance is observed at 400 nm, with a shoulder at 500 nm. […] Finally, in basic conditions (pH 11, blue spectrum) the phenolic group is deprotonated, and a negatively charged species is observed (L^−) with λmax at 406 nm. […] By plotting the absorbance value vs. pH at λmax, a titration curve is observed ([…]), with two equivalent points around pH = 5 and pH = 9. […] PY1 (Figure S3) is fully protonated below pH 5 (H3L+) and negatively charged in basic conditions (HL^−, L^2−). To estimate protonation constants and pKa values, spectrophotometric data were elaborated using Hypspec, and the logβ values, together with pKa, are reported in Table 1.
To perform spectrophotometric titrations, ligands (denoted generally as L in the following) were dissolved in methanol to give a mother solution (2.50 mM) that was then diluted in water to a final volume of 25 mL in order to obtain a 25/50 μM concentration, depending on the compound, in order to have a maximum absorbance in a range of 0.4–1. The pH (initial value ~5) was varied by adding small amounts (1 μL) of concentrated NaOH/HCl (4 M) in order to investigate the spectral behavior of the 2–11 pH range. In these conditions, the volume variations were negligible. A constant ionic strength (NaNO3, 0.1 M) was maintained in all the experiments. The overall protonation constants (βqr) are defined by the following equations:qL^l− + rH^+ ⇌ [LqHr]^(r − ql)(1) (2) βqr=LqHr^r − ql/L^−l]^q · H^+]^r where L is the ligand in the completely dissociated form and H is a proton. βqr values were refined from spectrophotometric data using least-squares calculations in HypSpec. The results of least-squares calculations include the standard deviations and correlation coefficients of the refined parameters. The quantities were obtained by performing error propagation calculations from the experimental errors on the parameters. The stability constant refinement furnishes least-squares estimates of the standard deviation, σ, of the stability constant, β. The error on logβ is calculated as follows: σ(logβ) = [log(β + σ) − log(β − σ)]/2, as previously reported.

HCT116 cells [9] = assay: Cell cycle analysis (propidium iodide cytofluorimetry); type: cell-based, human; conditions: HCT116, 48 h at GI50 dose; control 17%
Experimental: as §4, §5

PC3 cells [10] = assay: as above; type: cell-based, human; conditions: PC3, 48 h at GI50 dose; control 14.6%
Experimental: as §4, §5

[11] = aqueous solution, spectrophotometric data, HypSpec
[12] = logβ11 (MPY1, MPY3) or logβ12 − logβ11 (PY1), read-out: pKa2
[13] = logβ12 − logβ11 (MPY1, MPY3) or logβ13 − logβ12 (PY1), read-out: pKa1

Compound | % cells SubG1 (apoptotic cells) (LNCaP cells [3]) [%] | % cells S (LNCaP cells [3]) [%] | % cells G2/M (LNCaP cells [3]) [%] | % cells G0/G1 (LNCaP cells [3]) [%] | GI50 (PC3 cells [1]; Homo sapiens, PC-3, 48 h) [µM] | GI50 (LNCaP cells [4]; Homo sapiens, 48 h) [µM] | GI50 (HT29 cells [5]) [µM] | GI50 (HCT116 cells [6]) [µM] | logβ11 (overall protonation constant) [8, 11] | logβ12 (overall protonation constant) [8, 11] | pKa [8, 12] | pKa [8, 13] | other results
4,6-bis[(E)-2-(3-methoxyphenyl)ethenyl]pyrimidin-2-amine [PY4] |  |  |  |  |  |  |  |  |  |  |  |  | GI50 (PC3 cells [1]): 82.8 ± 23.4 µM
COc1cc(/C=C/C(=O)CC(=O)/C=C/c2ccc(O)c(OC)c2)ccc1O [Curcumin, (1E,6E)-1,7-bis (4-hydroxy-3-methoxyphenyl)-1,6-heptadiene-3,5-dione] | 7.2 | 9.7 | 22.3 | 58.4 | 23.9 ± 0.4 | > 30 | > 30 | 13.6 ± 2.9 |  |  |  |  | pKa of keto-enol moiety [2]: 8.56
COc1ccc(/C=C/C(=O)CC(=O)/C=C/c2ccc(OC)c(OC)c2)cc1OC [DiMC, bis-dimethoxycurcumin] |  |  |  |  |  |  |  |  |  |  |  |  | GI50 (HT29 cells [7]): 43.4 µM
COc1cc(/C=C/c2cc(C)nc(N)n2)ccc1O [MPY1, 4-[(E)-2-(2-amino-6-methylpyrimidin-4-yl)ethenyl]-2-methoxyphenol] |  |  |  |  |  | 73.9 ± 9.9 |  |  | 8.99 ± 0.01 | 13.72 ± 0.01 | 8.99 ± 0.01 | 4.73 ± 0.02 | 
COc1ccc(/C=C/c2cc(C)nc(N)n2)cc1OC [MPY2, 4-[(E)-2-(3,4-dimethoxyphenyl)ethenyl]-6-methylpyrimidin-2-amine] |  |  |  |  | 84.4 ± 0.1 | 73.1 ± 14 |  |  |  |  |  |  | 
COc1cc(/C=C/c2cc(C)nc(N)n2)ccc1OCCCN [MPY3, 4-{(E)-2-[4-(3-aminopropoxy)-3-methoxyphenyl]ethenyl}-6-methylpyrimidin-2-amine] |  |  |  |  |  | 68.8 ± 21.7 |  | 98 ± 13.6 | 8.62 ± 0.01 | 13.04 ± 0.01 | 8.62 ± 0.01 | 4.43 ± 0.02 | 
COc1cc(/C=C/c2cc(/C=C/c3ccc(O)c(OC)c3)nc(N)n2)ccc1O [PY1, 4,4′-{(2-aminopyrimidine-4,6-diyl)di[(E)ethene-2,1-diyl]}bis(2-methoxyphenol)] | 9.6 | 6.4 | 24.8 | 57.8 | ~24 | ~24 | 45.3 ± 4.1 | 19.9 ± 3.3 | 10.27 ± 0.03 | 19.30 ± 0.02 | 9.04 ± 0.05 | 4.86 ± 0.07 | logβ13 (overall protonation constant) [8, 11]: 24.17 ± 0.05; pKa ([8]; pKa3 = logβ11, read-out: pKa3): 10.27 ± 0.03; GI50 (PC3 cells [1]): 23.5 ± 9.7 µM; GI50 (LNCaP cells [4]): 24.1 ± 8.5 µM
COc1ccc(/C=C/c2cc(/C=C/c3ccc(OC)c(OC)c3)nc(N)n2)cc1OC [PY3, 4,6-bis[(E)-2-(3,4-dimethoxyphenyl)ethenyl]pyrimidin-2-amine] | 4.7 | 4.7 | 54.6 | 32.8 | 14.7 ± 0.9 | 12.1 ± 2 | 19.7 ± 1.1 | 37.9 ± 11.6 |  |  |  |  | % cells G2/M (HCT116 cells [9]): 33%; % cells G2/M (PC3 cells [10]): 62%
